Key:
[1] = tested on: mushroom-derived tyrosinase (버섯 유래 티로시나아제); assay: Tyrosinase inhibition (dopachrome formation from L-tyrosine); assay type: biochemical; details: 1 mM L-tyrosine, pH 6.5, 25℃, 30 min, 492 nm; compared with positive control kojic acid; Figure 2
[2] = tested on: ROS generated in vascular endothelial cells (혈관내피세포(YPEN-1)); assay: In vitro ROS scavenging activity, DCFDA assay in YPEN-1 vascular endothelial cells; assay type: cell-based, rat; details: YPEN-1 cells, SIN-1 50 μM pretreatment 1 h, compared with positive control Trolox, Figure 1
[3] = biological target: T1, PPARα (Homo sapiens, UniProt Q07869); assay: PPAR analysis, PPARα (Fluormone Pan-PPAR Green competition, competitive activation rate); details: final sample concentration 100 μM; compared with positive control fenofibrate; Figure 3
T1 sequence (Q07869 239-466 limits assumed): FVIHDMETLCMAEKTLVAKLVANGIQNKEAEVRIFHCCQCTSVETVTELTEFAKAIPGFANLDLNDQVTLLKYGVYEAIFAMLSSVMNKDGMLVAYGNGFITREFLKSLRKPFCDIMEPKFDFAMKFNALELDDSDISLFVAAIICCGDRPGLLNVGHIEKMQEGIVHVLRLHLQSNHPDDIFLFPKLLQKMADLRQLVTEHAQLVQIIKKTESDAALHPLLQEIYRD

[4] = tested on: PPARα and PPARγ (PPARα 및 PPARγ); assay: PPAR analysis, PPARα and PPARγ taken together; assay type: binding; details: final sample concentration 100 μM
[5] = biological target: T2, PPARγ (Homo sapiens, UniProt P37231); assay: PPAR analysis, PPARγ (Fluormone Pan-PPAR Green competition, competitive activation rate); assay type: binding; details: final sample concentration 100 μM; compared with positive control rosiglitazone; Figure 4
T2 sequence (P37231 238-503 limits assumed): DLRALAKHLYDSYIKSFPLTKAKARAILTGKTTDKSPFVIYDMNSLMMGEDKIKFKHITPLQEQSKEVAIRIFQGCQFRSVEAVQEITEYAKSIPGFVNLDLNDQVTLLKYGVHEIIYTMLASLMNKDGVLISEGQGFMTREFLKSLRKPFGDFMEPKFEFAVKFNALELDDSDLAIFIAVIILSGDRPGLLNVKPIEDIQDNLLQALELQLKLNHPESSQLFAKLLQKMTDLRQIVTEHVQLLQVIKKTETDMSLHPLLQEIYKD

PPARα activation (competitive activation rate), in words [3]	Compound	ROS scavenging effect [2]	other results
	NC(=O)N/N=C/c1ccc(O)cc1 [화합물 1, (E)-2-(4-Hydroxybenzylidene)hydrazinecarboxamide]		tyrosinase inhibitory activity [1]: 양성대조군인 코지산(Kojic Acid)과 유사한 티로시네이즈 억제 활성
	NC(=O)N/N=C/c1ccc(O)c(O)c1 [화합물 2, (E)-2-(3,4-Dihydroxybenzylidene)hydrazinecarboxamide]	양성대조군인 트롤록스(Trolox)만큼 소거하는 효과가 큰	
양성대조군인 페노피브레이트보다 매우 뛰어난 PPARα 활성화제	NC(=O)N/N=C/c1ccccc1O [화합물 10, (E)-2-(2-Hydroxybenzylidene)hydrazinecarboxamide]		
	CC(=O)N/C(=C\c1ccc(O)c(O)c1)C(=O)O [화합물 14, (Z)-2-Acetamido-3-(3,4-dihydroxyphenyl)acrylic acid]	양성대조군인 트롤록스(Trolox)만큼 소거하는 효과가 큰	
양성대조군인 페노피브레이트보다 매우 뛰어난 PPARα 활성화제	CC(=O)N/C(=C\c1ccc(O)cc1O)C(=O)O [화합물 15, (Z)-2-Acetamido-3-(2,4-dihydroxyphenyl)acrylic acid]		simultaneous activation of PPARα and PPARγ [4]: PPARα 및 PPARγ를 동시에 활성화할 수 있는 활성화제; PPARγ activation (competitive activation rate), in words [5]: 양성대조군인 로지글리타존보다 뛰어난 PPARγ 활성화제
	COc1cc(/C=C(\NC(C)=O)C(=O)O)ccc1O [화합물 16, (Z)-2-Acetamido-3-(4-hydroxy-3-methoxyphenyl)acrylic acid]	양성대조군인 트롤록스(Trolox)만큼 소거하는 효과가 큰	
	CCOc1cc(/C=C(\NC(C)=O)C(=O)O)ccc1O [화합물 17, (Z)-2-Acetamido-3-(3-ethoxy-4-hydroxyphenyl)acrylic acid]	양성대조군인 트롤록스(Trolox)만큼 소거하는 효과가 큰	
양성대조군인 페노피브레이트보다 매우 뛰어난 PPARα 활성화제	CC(=O)N/C(=C\c1ccccc1O)C(=O)O [화합물 23, (Z)-2-Acetamido-3-(2-hydroxyphenyl)acrylic acid]		simultaneous activation of PPARα and PPARγ [4]: PPARα 및 PPARγ를 동시에 활성화할 수 있는 활성화제; PPARγ activation (competitive activation rate), in words [5]: 양성대조군인 로지글리타존보다 뛰어난 PPARγ 활성화제
	COc1cc(/C=C(\NC(C)=O)C(=O)O)cc(OC)c1O [화합물 25, (Z)-2-Acetamido-3-(4-hydroxy-3,5-dimethoxyphenyl)acrylic acid]	양성대조군인 트롤록스(Trolox)만큼 소거하는 효과가 큰	
